Experiment: Elution of antibiotics from cured α-BSM cement ball into phosphate buffer
Type: physicochemical
Conditions: other material used as carrier instead of the hydroxyapatite-like cement pastes
Protocol: 1 g of cement powder (α-BSM, WO 96/36562) and 0.7 ml of water in which 42 mg of gentamycin sulfate have been dissolved are mixed with one another. A paste is obtained by this means, which is shaped to give a ball of about 1 cm diameter. This ball is added at 37° C. to 20 ml of phosphate buffer according to Sörensen (pH 7.4). After approximately 10 minutes, the cement ball cures. At defined times, samples are taken from the buffer solution and the concentration of the antibiotic is determined microbiologically or chromatographically according to standard methods. The determined antibiotic concentrations in μg/ml correspond to the concentrations released in the buffer.
Analogously to Example 1, a previously cured ball of agar/gentamycin sulfate is eluted and the corresponding concentrations are measured.
Analogously to Example 1, an α-BSM/cefazolin ball is eluted and the corresponding concentrations are measured.
Analogously to Example 1, an α-BSM/netilmycin sulfate ball is eluted and the corresponding concentrations are measured.

Substance: gentamycin sulfate
- release characteristics of the antibiotic (in words): released just as rapidly

Source: patent US6485754B1, “Bone cement paste containing an antibiotic” (Merck Patent GmbH, priority 1997, dated 2002)
